Measured values reported in PubChem BioAssay (NCI).
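96-well plates; 48 h exposure; 5 concentrations. Endpoints by linear interpolation between flanking doses. Not reached: highest tested concentration assigned. GI50: concentration for 50% inhibition of growth. TGI denotes the concentration required for complete inhibition of growth.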

Tests used:
Assay in all cases: DTP human tumour cell line panel, 48 h
A549 NSCLC = tested on: A549 NSCLC
HCT-116 colon = tested on: HCT-116 colon
MOLT-4 leukemia = tested on: MOLT-4 leukemia
NCI-H460 lung = tested on: NCI-H460 lung
SN12C renal = tested on: SN12C renal
TK-10 renal = tested on: TK-10 renal
MDA-N = tested on: MDA-N
PC-3 prostate = tested on: PC-3 prostate
UACC-257 melanoma = tested on: UACC-257 melanoma
HS 578T breast = tested on: HS 578T breast

| Compound | GI50 (A549 NSCLC) | TGI (A549 NSCLC) | GI50 (HCT-116 colon) | TGI (HCT-116 colon) | GI50 (MOLT-4 leukemia) | TGI (MOLT-4 leukemia) | GI50 (NCI-H460 lung) | TGI (NCI-H460 lung) | GI50 (SN12C renal) | TGI (SN12C renal) | GI50 (TK-10 renal) | TGI (TK-10 renal) | TGI (MDA-N) | TGI (PC-3 prostate) | TGI (UACC-257 melanoma) | GI50 (PC-3 prostate) | GI50 (UACC-257 melanoma) | TGI (HS 578T breast) |
| --- | --- | --- | --- | --- | --- | --- | --- | --- | --- | --- | --- | --- | --- | --- | --- | --- | --- | --- |
| CCC[CH2][Ge]([CH2]CCC)([CH2]CCC)[O]C(=O)CCl | 1.01 µM | 17.3 µM | 0.498 µM | 13.3 µM | 0.856 µM | 29.9 µM | 0.518 µM | 13.2 µM | 1.46 µM | 19.3 µM | 3.4 µM | 17.7 µM |  |  |  |  |  |  |
| CC1Oc2c(c(O)cc3oc(=O)cc(-c4ccccc4)c23)C(=O)C1C (centres undefined) |  |  |  |  |  | > 100 µM |  | > 100 µM |  | > 100 µM |  | > 100 µM |  |  |  |  |  |  |
| CN1C(C(=O)Nc2ccccn2)=C(O)c2ccccc2S1(=O)=O |  | > 100 µM |  | > 100 µM |  | > 100 µM |  |  |  | > 100 µM |  | > 100 µM | > 100 µM | > 100 µM | > 100 µM |  |  |  |
| CC1=NN(C(=O)Cc2ccccc2)C(=O)/C1=C\c1cccc(O)c1 |  | > 100 µM |  | > 100 µM |  | > 100 µM |  | > 100 µM |  | > 100 µM |  | > 100 µM |  |  | > 100 µM |  |  |  |
| C=C1C(=O)OC2C1CC1OC2C(C)CCC/C(C)=C\CCC1(C)O (centres undefined) |  | > 78.3 µM |  | 41 µM |  | 21 µM |  | 60.9 µM |  | 62.5 µM |  |  |  |  | 72.8 µM |  |  |  |
| C#Cc1ccccc1C(=O)OC |  | > 100 µM |  | > 100 µM |  | > 100 µM |  | > 100 µM |  | > 100 µM |  | > 100 µM |  |  | > 100 µM |  |  |  |
| Brc1ccc2[nH]cc(-c3nc(-c4c[nH]c5ccncc45)cs3)c2c1 |  |  |  |  |  |  |  |  | 1.79 µM | 3.32 µM | 2.33 µM | 3.9 µM |  | 3.06 µM | 3.46 µM | 1.58 µM | 1.92 µM |  |
| COc1ccc(CNc2cnc3cc(N)ccc3n2)cc1OC |  | > 100 µM |  | > 100 µM |  | > 100 µM |  | > 100 µM |  | > 100 µM |  | > 100 µM |  |  | > 100 µM |  |  |  |
| COc1cc(/C=C/C=C2\CC(C)C/C(=C\C=C\c3ccc(O)c(OC)c3)C2=O)ccc1O (centres undefined) |  | > 100 µM |  | > 100 µM |  | 29.6 µM |  | 92.3 µM |  | > 100 µM |  | 16 µM |  | 48.8 µM | 89.7 µM |  |  | > 100 µM |
| Cc1ccc(NC(=O)NC23CC4CC(CC(F)(C4)C2)C3)cc1 |  | > 100 µM |  | > 100 µM |  | > 100 µM |  | > 100 µM |  |  |  | > 100 µM |  |  | > 100 µM |  |  |  |
| Cn1cnc([N+](=O)[O-])c1Sc1nncc2[nH]cnc12 |  | > 100 µM |  | > 100 µM |  | > 100 µM |  |  |  | > 100 µM |  | > 100 µM | > 100 µM | > 100 µM | > 100 µM |  |  |  |
| O=C(NNc1ccc([N+](=O)[O-])cc1)C1OC(CO)C(O)C1O (centres undefined) |  | > 100 µM |  | > 100 µM |  | > 100 µM |  | > 100 µM |  | > 100 µM |  | > 100 µM |  |  | > 100 µM |  |  |  |
| Cc1cc(=O)[nH]c(S(=O)(=O)NC(=S)Nc2ccc(Br)cc2)n1 |  |  |  |  |  | > 100 µM |  | > 100 µM |  | > 100 µM |  | > 100 µM |  | > 100 µM | > 100 µM |  |  | > 100 µM |
| c1csc(-c2csc(-c3cccs3)c2)c1 |  | > 100 µM |  | > 100 µM |  | 89.2 µM |  | > 100 µM |  | > 100 µM |  | > 100 µM |  | 82.7 µM | > 100 µM |  |  | > 100 µM |
| O.O=[Se](=O)(O)O.[NH-]C1CCCCC1[NH-].[Pt+2] (centres undefined) | 5.26 µM | > 100 µM | 4.36 µM | > 100 µM | 2.79 µM | > 100 µM | 3.77 µM | 38.7 µM | 23.3 µM | > 100 µM |  |  |  |  | > 100 µM |  | 46.4 µM |  |
| O=C(c1ccccc1)c1ccc2c(c1)N=C(c1ccc(Cl)c(Cl)c1)CC(c1ccc3ccccc3c1)N2 (centres undefined) |  | > 100 µM |  | > 100 µM |  | > 100 µM |  | > 100 µM |  | > 100 µM |  | > 100 µM |  |  | > 100 µM |  |  |  |
| Nc1ncc(Cc2nn3c(COc4ccc(Cl)cc4)nnc3s2)s1 |  | > 100 µM |  | > 100 µM |  | > 100 µM |  | > 100 µM |  | > 100 µM |  | > 100 µM |  | > 100 µM | > 100 µM |  |  | > 100 µM |
| COc1cccc2c1C(=O)c1c(O)c3c(c(O)c1C2=O)C[C@](O)(C(=O)CO)CC3OC1CC(N)C(OC2CCCCO2)C(C)O1 (some centres undefined) |  | 13.3 µM |  | 2.49 µM |  | 0.0342 µM |  | 0.208 µM |  | 3.12 µM |  |  |  |  | 2.5 µM |  |  |  |
| Cc1cccc(-c2cc(=O)c3c(C)ccnc3[nH]2)c1 |  | > 100 µM |  | > 33.5 µM |  | > 100 µM |  | 16.3 µM |  | > 100 µM |  | > 100 µM |  | > 100 µM |  |  |  | > 100 µM |
| CC[N+]1(C)CCC(O)(/C=C/c2ccc(Cl)c(Cl)c2)C(C(=O)/C=C/c2ccc(Cl)c(Cl)c2)C1 (centres undefined) |  | 15.7 µM |  | 3 µM |  | 5.17 µM |  | 9.03 µM |  | 3.61 µM |  | 6.58 µM |  | 5.19 µM | 5.96 µM |  |  | 7.66 µM |
| C=CC(=O)N1C/C(=C\c2ccc(F)cc2)C(=O)/C(=C/c2ccc(F)cc2)C1 |  | 4.47 µM |  | 0.105 µM |  |  |  | 2.04 µM |  | 0.936 µM |  | 2.84 µM |  | 1.79 µM | 6.05 µM |  |  | 0.876 µM |
